Measured values from the NIST ThermoML archive (doi:10.1021/je900404r).

Legend:
[1] = xn = mol fraction of the nth substance listed; details: 101 kPa, Liquid, Vibrating tube method
[2] = 101 kPa, Liquid, Vibrating tube method

O=C1CCCCC1 [cyclohexanone] + ClCCCl
[1], x2 = 0
Details	mass density [kg/m3]
288.15 K	951.69
298.15 K	942.76
308.15 K	933.8
318.15 K	924.82

ClCCCCl [1,3-dichloropropane]
[2]
Details	mass density [kg/m3]
288.15 K	1191.93
298.15 K	1179.58
308.15 K	1167.16
318.15 K	1154.67

CC(Cl)(Cl)Cl [1,1,1-trichloroethane] + O=C1CCCCC1
mass density [kg/m3], [1]
Details	x1 = 0.1151	x1 = 0.2288	x1 = 0.3155	x1 = 0.4163	x1 = 0.5167	x1 = 0.6059	x1 = 0.7081	x1 = 0.8062	x1 = 0.8979	x1 = 1
288.15 K	996.74	1041.75	1076.19	1116.3	1156.17	1191.52	1231.85	1270.3	1305.81	1344.95
298.15 K	987.13	1031.43	1065.28	1104.68	1143.81	1178.45	1217.94	1255.52	1290.16	1328.27
308.15 K	977.49	1021.06	1054.33	1093.01	1131.39	1165.33	1203.95	1240.64	1274.41	1311.45
318.15 K	967.81	1010.65	1043.33	1081.28	1118.9	1152.12	1189.86	1225.64	1258.51	1294.47

O=C1CCCCC1 [cyclohexanone] + ClC(Cl)C(Cl)Cl
[1], x2 = 0
Details	mass density [kg/m3]
288.15 K	951.69
298.15 K	942.76
308.15 K	933.8
318.15 K	924.82

CC(Cl)(Cl)Cl [1,1,1-trichloroethane]
[2]
Details	mass density [kg/m3]
288.15 K	1344.95
298.15 K	1328.27
308.15 K	1311.45
318.15 K	1294.47

ClCCCl [1,2-dichloroethane]
[2]
Details	mass density [kg/m3]
288.15 K	1260.01
298.15 K	1245.48
308.15 K	1230.83
318.15 K	1216.04

ClC(Cl)C(Cl)Cl [1,1,2,2-tetrachloroethane] + O=C1CCCCC1
mass density [kg/m3], [1]
Details	x1 = 0.1147	x1 = 0.2121	x1 = 0.3045	x1 = 0.4052	x1 = 0.4996	x1 = 0.5909	x1 = 0.6868	x1 = 0.782	x1 = 0.8798	x1 = 1
288.15 K	1029.34	1094.87	1156.78	1223.8	1286.07	1345.8	1407.73	1468.5	1530.11	1604.75
298.15 K	1019.79	1084.77	1146.13	1212.52	1274.18	1333.31	1394.58	1454.64	1515.52	1589.18
308.15 K	1010.2	1074.62	1135.43	1201.2	1262.26	1320.77	1381.38	1440.76	1500.89	1573.57
318.15 K	1000.58	1064.44	1124.7	1189.84	1250.3	1308.2	1368.14	1426.83	1486.23	1557.94

ClCCCl [1,2-dichloroethane] + O=C1CCCCC1
mass density [kg/m3], [1]
Details	x1 = 0.1142	x1 = 0.2318	x1 = 0.3197	x1 = 0.4227	x1 = 0.519	x1 = 0.6155	x1 = 0.7061	x1 = 0.8134	x1 = 0.9145	x1 = 1
288.15 K	978.81	1008.61	1032.1	1061.02	1089.5	1119.7	1149.67	1187.43	1225.5	1260.01
298.15 K	969.5	998.88	1022	1050.47	1078.46	1108.12	1137.52	1174.53	1211.76	1245.48
308.15 K	960.16	989.1	1011.86	1039.86	1067.36	1096.48	1125.3	1161.53	1197.92	1230.83
318.15 K	950.78	979.28	1001.67	1029.19	1056.19	1084.75	1112.98	1148.42	1183.96	1216.04

O=C1CCCCC1 [cyclohexanone] + ClCCCCCl
[1], x2 = 0
Details	mass density [kg/m3]
288.15 K	951.69
298.15 K	942.76
308.15 K	933.8
318.15 K	924.82

O=C1CCCCC1 [cyclohexanone] + ClCCCCl
[1], x2 = 0
Details	mass density [kg/m3]
288.15 K	951.69
298.15 K	942.76
308.15 K	933.8
318.15 K	924.82

O=C1CCCCC1 [cyclohexanone]
[2]
Details	mass density [kg/m3]
288.15 K	951.69
298.15 K	942.76
308.15 K	933.8
318.15 K	924.82

O=C1CCCCC1 [cyclohexanone] + CCCCCl
[1], x2 = 0
Details	mass density [kg/m3]
288.15 K	951.69
298.15 K	942.76
308.15 K	933.8
318.15 K	924.82
